# Test results as given in article PMC8550792, “Evolution of kinase polypharmacology across HSP90 drug discovery” (Cell Chemical Biology, 2021).
# Like-named read-outs stand apart in the source and are kept apart here.
# Assays:
# Assay in all cases: biochemical
# Format in all cases: biochemical
# 382 unique human kinases [1] = molecular target: T1, 382 unique human kinases (Homo sapiens, UniProt P28482); conditions: ERK2/MAPK1, 10 uM; for remaining activity at 10 µM: read-out: % Enzyme Activity (relative to DMSO controls)
# T1 construct: purchased Reaction Biology (HotSpot contract assay)
# 382 unique human kinases [2] = molecular target: T2, 382 unique human kinases (Homo sapiens, UniProt P41743); conditions: PKCiota, 10 uM; for remaining activity at 10 µM: read-out: % Enzyme Activity (relative to DMSO controls)
# T2 construct: purchased Reaction Biology (HotSpot contract assay)
# T2 sequence (P41743 1-596): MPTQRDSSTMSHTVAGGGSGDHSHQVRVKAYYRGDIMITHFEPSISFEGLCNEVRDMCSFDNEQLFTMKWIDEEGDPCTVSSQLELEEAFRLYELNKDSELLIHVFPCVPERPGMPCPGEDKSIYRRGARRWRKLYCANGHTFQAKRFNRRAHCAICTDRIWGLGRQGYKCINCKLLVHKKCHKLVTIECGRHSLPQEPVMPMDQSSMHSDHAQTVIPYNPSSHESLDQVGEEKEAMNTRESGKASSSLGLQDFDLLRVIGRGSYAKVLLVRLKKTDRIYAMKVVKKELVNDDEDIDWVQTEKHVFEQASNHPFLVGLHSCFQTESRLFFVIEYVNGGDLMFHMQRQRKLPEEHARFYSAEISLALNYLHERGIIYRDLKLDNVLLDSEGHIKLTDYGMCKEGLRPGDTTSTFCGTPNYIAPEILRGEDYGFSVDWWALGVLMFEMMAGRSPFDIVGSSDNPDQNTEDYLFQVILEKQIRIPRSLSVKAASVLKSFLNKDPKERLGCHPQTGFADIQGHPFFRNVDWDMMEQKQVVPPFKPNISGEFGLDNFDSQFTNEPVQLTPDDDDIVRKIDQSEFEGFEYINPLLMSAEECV
# 382 unique human kinases [3] = molecular target: T3, 382 unique human kinases (Homo sapiens, UniProt P27448); conditions: MARK3, 10 uM; for remaining activity at 10 µM: read-out: % Enzyme Activity (relative to DMSO controls)
# T3 construct: purchased Reaction Biology (HotSpot contract assay)
# 382 unique human kinases [4] = molecular target: T4, 382 unique human kinases (Homo sapiens, UniProt P16234); conditions: kinase PDGFRa, compound 10 uM; for remaining activity at 10 µM: read-out: % Enzyme Activity (relative to DMSO controls)
# T4 construct: purchased Reaction Biology (HotSpot contract assay)
# 382 unique human kinases [5] = molecular target: T5, 382 unique human kinases (Homo sapiens, UniProt O94804); conditions: LOK/STK10, 10 uM; for remaining activity at 10 µM: read-out: % Enzyme Activity (relative to DMSO controls)
# T5 construct: purchased Reaction Biology (HotSpot contract assay)
# 382 unique human kinases [6] = molecular target: T6, 382 unique human kinases (Homo sapiens, UniProt Q15375); conditions: kinase EPHA7, compound 10 uM; for remaining activity at 10 µM: read-out: % Enzyme Activity (relative to DMSO controls)
# T6 construct: purchased Reaction Biology (HotSpot contract assay)
# 382 unique human kinases [7] = molecular target: T7, 382 unique human kinases (Homo sapiens, UniProt P10721, K642E); conditions: kinase c-Kit (K642E), compound 10 uM; for remaining activity at 10 µM: read-out: % Enzyme Activity (relative to DMSO controls)
# T7 construct: purchased Reaction Biology (HotSpot contract assay)
# 382 unique human kinases [8] = molecular target: T8, 382 unique human kinases (Homo sapiens, UniProt Q8IU85); conditions: kinase CAMK1d, compound 10 uM; for remaining activity at 10 µM: read-out: % Enzyme Activity (relative to DMSO controls)
# T8 construct: purchased Reaction Biology (HotSpot contract assay)
# 382 unique human kinases [9] = molecular target: T9, 382 unique human kinases (Homo sapiens, UniProt P51617); conditions: kinase IRAK1, compound 10 uM; for remaining activity at 10 µM: read-out: % Enzyme Activity (relative to DMSO controls)
# T9 construct: purchased Reaction Biology (HotSpot contract assay)
# 382 unique human kinases [10] = molecular target: T10, 382 unique human kinases (Homo sapiens, UniProt Q9BXA7); conditions: STK22D/TSSK1, 10 uM; for remaining activity at 10 µM: read-out: % Enzyme Activity (relative to DMSO controls)
# T10 construct: purchased Reaction Biology (HotSpot contract assay)
# T10 sequence (Q9BXA7 1-367): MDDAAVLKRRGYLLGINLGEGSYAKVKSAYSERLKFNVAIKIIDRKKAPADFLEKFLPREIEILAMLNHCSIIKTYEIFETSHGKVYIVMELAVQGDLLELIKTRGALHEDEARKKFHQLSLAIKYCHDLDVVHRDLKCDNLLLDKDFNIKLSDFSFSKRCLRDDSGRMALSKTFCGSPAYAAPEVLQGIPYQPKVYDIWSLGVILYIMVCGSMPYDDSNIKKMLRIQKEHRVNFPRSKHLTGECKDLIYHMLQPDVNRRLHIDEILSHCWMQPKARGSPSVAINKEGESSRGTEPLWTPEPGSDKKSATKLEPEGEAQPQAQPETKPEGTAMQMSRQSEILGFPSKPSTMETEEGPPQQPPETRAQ
# 382 unique human kinases [11] = molecular target: T11, 382 unique human kinases (Homo sapiens, UniProt P15735); conditions: PHKg2, compound at 10 uM, duplicate values; for remaining activity at 10 µM: read-out: % Enzyme Activity (relative to DMSO controls)
# T11 construct: purchased Reaction Biology (HotSpot contract assay)
# T11 sequence (P15735 1-406): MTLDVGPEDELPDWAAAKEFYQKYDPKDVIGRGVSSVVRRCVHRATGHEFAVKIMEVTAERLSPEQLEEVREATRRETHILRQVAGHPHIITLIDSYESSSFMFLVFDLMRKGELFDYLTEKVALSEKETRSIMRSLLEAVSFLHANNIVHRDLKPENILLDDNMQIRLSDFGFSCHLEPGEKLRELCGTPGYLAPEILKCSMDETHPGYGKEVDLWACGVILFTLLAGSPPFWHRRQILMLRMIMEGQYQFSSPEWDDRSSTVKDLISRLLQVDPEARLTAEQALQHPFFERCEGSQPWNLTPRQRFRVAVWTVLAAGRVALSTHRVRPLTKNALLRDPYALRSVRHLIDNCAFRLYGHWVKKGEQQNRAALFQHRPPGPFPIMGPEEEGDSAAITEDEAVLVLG
# 382 unique human kinases [12] = molecular target: T12, 382 unique human kinases (Homo sapiens, UniProt P07949, E762Q); conditions: compound 10 uM; for remaining activity at 10 µM: read-out: % Enzyme Activity (relative to DMSO controls)
# T12 construct: purchased Reaction Biology (HotSpot contract assay)
# 382 unique human kinases [13] = molecular target: T13, 382 unique human kinases (Homo sapiens, UniProt P07949, Y806H); conditions: RET (Y806H), 10 uM; for remaining activity at 10 µM: read-out: % Enzyme Activity (relative to DMSO controls)
# T13 construct: purchased Reaction Biology (HotSpot contract assay)
# 382 unique human kinases [14] = molecular target: T14, 382 unique human kinases (Homo sapiens, UniProt Q9Y243, G171R); conditions: AKT3 (G171R), 10 uM; for remaining activity at 10 µM: read-out: % Enzyme Activity (relative to DMSO controls)
# T14 construct: purchased Reaction Biology (HotSpot contract assay)
# T14 sequence (Q9Y243 whole entry G171R): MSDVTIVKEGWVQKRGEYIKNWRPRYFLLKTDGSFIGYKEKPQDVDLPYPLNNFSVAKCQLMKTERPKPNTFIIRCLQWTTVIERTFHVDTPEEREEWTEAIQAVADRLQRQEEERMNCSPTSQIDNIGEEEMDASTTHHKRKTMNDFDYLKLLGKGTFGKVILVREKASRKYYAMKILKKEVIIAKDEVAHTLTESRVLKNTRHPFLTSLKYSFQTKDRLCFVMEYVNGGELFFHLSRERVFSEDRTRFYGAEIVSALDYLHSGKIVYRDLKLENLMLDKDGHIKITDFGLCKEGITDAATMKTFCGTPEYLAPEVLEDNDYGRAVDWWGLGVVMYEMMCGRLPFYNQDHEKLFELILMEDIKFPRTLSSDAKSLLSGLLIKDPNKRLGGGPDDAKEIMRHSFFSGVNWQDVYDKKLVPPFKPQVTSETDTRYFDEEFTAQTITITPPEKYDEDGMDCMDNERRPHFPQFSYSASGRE
# T12 sequence (P07949 29-1114 E762Q): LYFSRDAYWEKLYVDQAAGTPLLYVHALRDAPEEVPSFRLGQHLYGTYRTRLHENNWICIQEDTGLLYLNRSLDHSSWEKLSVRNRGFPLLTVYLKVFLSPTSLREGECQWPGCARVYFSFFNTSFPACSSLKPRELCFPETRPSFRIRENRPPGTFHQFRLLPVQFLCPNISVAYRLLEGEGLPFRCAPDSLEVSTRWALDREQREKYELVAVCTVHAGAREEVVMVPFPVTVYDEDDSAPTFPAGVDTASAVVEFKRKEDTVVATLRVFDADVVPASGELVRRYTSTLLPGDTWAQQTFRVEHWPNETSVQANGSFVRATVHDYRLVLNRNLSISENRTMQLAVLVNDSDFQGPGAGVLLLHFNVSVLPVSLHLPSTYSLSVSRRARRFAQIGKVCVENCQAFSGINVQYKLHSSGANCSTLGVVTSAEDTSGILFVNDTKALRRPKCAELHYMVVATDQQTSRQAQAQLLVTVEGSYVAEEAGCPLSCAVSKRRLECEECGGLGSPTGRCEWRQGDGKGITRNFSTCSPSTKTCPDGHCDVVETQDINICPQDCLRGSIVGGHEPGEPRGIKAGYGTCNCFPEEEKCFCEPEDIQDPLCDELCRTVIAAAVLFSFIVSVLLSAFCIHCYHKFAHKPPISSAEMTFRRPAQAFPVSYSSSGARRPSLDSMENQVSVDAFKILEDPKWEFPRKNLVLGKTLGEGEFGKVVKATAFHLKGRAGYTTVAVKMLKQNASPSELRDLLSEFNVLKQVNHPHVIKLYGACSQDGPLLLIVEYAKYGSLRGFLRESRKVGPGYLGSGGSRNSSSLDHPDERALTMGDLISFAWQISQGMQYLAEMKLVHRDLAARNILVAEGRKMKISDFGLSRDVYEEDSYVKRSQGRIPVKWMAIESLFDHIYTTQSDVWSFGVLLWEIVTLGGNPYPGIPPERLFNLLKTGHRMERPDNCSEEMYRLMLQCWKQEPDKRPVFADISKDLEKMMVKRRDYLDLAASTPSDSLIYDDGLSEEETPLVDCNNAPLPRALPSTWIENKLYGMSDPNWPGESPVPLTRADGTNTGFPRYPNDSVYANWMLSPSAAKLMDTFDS
# T1 sequence (P28482 whole entry): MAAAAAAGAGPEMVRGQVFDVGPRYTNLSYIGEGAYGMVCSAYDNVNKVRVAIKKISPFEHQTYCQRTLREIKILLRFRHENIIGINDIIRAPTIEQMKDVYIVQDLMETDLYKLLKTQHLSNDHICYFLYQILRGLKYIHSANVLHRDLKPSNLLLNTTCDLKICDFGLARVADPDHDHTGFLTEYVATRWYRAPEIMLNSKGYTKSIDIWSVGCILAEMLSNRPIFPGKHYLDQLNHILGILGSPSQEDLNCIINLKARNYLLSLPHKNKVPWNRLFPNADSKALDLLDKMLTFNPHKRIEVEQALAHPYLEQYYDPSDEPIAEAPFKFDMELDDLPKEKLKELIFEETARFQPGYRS
# T3 sequence (P27448 whole entry): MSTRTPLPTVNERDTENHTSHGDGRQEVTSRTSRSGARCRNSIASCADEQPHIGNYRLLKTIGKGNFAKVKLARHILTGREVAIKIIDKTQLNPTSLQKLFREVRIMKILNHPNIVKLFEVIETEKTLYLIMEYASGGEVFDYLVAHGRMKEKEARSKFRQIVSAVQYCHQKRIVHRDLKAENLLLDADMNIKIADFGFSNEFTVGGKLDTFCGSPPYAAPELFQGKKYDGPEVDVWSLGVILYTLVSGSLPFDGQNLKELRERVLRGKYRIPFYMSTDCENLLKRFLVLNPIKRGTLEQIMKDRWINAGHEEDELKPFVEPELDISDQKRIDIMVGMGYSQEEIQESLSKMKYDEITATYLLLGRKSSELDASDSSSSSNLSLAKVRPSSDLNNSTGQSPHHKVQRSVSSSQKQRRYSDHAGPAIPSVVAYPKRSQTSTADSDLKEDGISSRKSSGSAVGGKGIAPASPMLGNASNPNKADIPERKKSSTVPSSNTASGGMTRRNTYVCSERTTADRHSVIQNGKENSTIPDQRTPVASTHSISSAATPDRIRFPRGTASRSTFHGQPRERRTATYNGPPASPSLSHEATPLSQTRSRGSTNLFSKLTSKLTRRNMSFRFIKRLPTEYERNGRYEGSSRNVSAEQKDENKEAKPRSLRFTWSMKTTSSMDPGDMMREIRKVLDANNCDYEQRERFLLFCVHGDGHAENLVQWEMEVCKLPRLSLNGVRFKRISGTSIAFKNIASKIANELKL
# T13 sequence (P07949 29-1114 Y806H): as the sequence (P07949 29-1114 E762Q) above, with Q734E, Y778H counted along it
# T9 sequence (P51617 whole entry): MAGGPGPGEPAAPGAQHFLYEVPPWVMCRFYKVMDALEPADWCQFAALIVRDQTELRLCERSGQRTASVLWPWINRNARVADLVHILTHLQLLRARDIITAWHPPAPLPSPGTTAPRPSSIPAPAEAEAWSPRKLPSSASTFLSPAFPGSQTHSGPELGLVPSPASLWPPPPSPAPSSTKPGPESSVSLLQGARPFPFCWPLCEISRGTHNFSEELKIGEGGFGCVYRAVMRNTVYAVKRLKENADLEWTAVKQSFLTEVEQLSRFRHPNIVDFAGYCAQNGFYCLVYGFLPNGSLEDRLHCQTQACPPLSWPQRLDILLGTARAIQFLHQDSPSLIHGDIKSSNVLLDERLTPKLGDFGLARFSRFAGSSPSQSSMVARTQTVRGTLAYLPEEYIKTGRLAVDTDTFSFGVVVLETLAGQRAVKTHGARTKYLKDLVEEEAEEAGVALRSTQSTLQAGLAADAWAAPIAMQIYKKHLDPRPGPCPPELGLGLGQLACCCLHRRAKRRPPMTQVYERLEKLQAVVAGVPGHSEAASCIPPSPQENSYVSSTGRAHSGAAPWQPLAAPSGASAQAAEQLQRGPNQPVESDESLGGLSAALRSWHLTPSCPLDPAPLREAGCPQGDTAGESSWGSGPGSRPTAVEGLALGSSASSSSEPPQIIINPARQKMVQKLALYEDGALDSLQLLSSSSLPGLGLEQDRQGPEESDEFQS
# T8 sequence (Q8IU85 whole entry): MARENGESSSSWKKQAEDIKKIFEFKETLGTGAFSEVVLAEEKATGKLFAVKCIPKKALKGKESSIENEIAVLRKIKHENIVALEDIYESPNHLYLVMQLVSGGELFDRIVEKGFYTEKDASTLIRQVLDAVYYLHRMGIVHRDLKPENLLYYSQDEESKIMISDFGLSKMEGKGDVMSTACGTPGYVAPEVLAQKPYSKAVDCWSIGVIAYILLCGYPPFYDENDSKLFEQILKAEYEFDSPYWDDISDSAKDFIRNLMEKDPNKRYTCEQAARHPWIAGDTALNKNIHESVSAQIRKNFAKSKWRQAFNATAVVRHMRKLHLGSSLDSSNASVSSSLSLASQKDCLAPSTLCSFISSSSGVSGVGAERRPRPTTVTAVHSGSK
# T5 sequence (O94804 whole entry): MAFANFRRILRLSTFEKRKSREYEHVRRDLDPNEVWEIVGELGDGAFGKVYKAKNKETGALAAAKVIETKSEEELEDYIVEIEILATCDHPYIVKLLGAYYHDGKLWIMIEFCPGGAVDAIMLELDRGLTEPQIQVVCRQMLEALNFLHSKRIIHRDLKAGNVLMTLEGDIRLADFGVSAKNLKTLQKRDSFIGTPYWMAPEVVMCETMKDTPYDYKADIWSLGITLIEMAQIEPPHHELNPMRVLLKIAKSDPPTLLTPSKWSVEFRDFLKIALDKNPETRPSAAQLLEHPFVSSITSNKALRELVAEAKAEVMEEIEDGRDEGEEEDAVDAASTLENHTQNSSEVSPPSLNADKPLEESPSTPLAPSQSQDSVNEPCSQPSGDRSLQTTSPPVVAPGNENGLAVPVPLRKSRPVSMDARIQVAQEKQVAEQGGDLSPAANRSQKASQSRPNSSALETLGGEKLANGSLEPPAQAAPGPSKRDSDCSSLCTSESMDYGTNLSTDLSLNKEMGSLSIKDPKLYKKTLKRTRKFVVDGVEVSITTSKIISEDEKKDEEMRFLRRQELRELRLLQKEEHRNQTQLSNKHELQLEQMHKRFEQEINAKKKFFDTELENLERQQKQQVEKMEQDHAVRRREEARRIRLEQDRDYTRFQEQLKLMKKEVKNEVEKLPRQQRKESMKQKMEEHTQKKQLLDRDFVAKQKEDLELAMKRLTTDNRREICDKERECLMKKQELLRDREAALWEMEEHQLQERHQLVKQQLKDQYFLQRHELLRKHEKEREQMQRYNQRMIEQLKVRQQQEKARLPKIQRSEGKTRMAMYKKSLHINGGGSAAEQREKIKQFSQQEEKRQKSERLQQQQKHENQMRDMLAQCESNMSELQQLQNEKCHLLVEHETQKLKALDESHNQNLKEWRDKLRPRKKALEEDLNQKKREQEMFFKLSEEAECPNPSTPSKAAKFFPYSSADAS
smiles,measurement,setting,value
CCNC(=O)c1noc(-c2cc(C(C)C)c(O)cc2O)c1-c1ccc(CN2CCOCC2)cc1 [Luminespib],% Enzyme Activity (relative to DMSO controls),382 unique human kinases [1],93.52%
same,remaining activity at 10 µM,382 unique human kinases [1],94.6%
same,% Enzyme Activity (relative to DMSO controls),382 unique human kinases [2],94.98%
same,remaining activity at 10 µM,382 unique human kinases [2],96%
same,% Enzyme Activity (relative to DMSO controls),382 unique human kinases [3],108.05%
same,remaining activity at 10 µM,382 unique human kinases [3],111%
CC(C)c1cc(-c2n[nH]c(=O)n2-c2ccc3c(ccn3C)c2)c(O)cc1O [Ganetespib (STA9090)],remaining activity at 10 µM,382 unique human kinases [4],82.6%
same,remaining activity at 10 µM,382 unique human kinases [5],77%
same,remaining activity at 10 µM,382 unique human kinases [6],86.7%
same,remaining activity at 10 µM,382 unique human kinases [7],85.5%
same,remaining activity at 10 µM,382 unique human kinases [8],86.2%
same,remaining activity at 10 µM,382 unique human kinases [9],102%
same,remaining activity at 10 µM,382 unique human kinases [10],75.4%
same,remaining activity at 10 µM,382 unique human kinases [11],105%
same,remaining activity at 10 µM,382 unique human kinases [12]; […],94.2%
same,remaining activity at 10 µM,382 unique human kinases [12]; kinase RET (E762Q),93.8%
same,remaining activity at 10 µM,382 unique human kinases [13],78.2%
same,remaining activity at 10 µM,382 unique human kinases [14],67.1%
CCNC(=O)c1noc(-c2cc(C(C)C)c(O)cc2O)c1-c1ccc(CN2CCOCC2)cc1 [Luminespib (AUY-922)],% Enzyme Activity (relative to DMSO controls),382 unique human kinases [4],83.27%
same,remaining activity at 10 µM,382 unique human kinases [4],85.4%
same,% Enzyme Activity (relative to DMSO controls),382 unique human kinases [5],85.80%
same,remaining activity at 10 µM,382 unique human kinases [5],86.5%
same,% Enzyme Activity (relative to DMSO controls),382 unique human kinases [6],95.91%
same,remaining activity at 10 µM,382 unique human kinases [6],97.9%
same,% Enzyme Activity (relative to DMSO controls),382 unique human kinases [7],81.47%
same,remaining activity at 10 µM,382 unique human kinases [7],82.3%
same,% Enzyme Activity (relative to DMSO controls),382 unique human kinases [8],100.18%
same,remaining activity at 10 µM,382 unique human kinases [8],101%
same,% Enzyme Activity (relative to DMSO controls),382 unique human kinases [9],104.17%
same,remaining activity at 10 µM,382 unique human kinases [9],105%
same,% Enzyme Activity (relative to DMSO controls),382 unique human kinases [10],98.29%
same,remaining activity at 10 µM,382 unique human kinases [10],99.3%
same,% Enzyme Activity (relative to DMSO controls),382 unique human kinases [11],106.26%
same,remaining activity at 10 µM,382 unique human kinases [11],107%
same,% Enzyme Activity (relative to DMSO controls),382 unique human kinases [12]; kinase RET (E762Q),89.64%
same,remaining activity at 10 µM,382 unique human kinases [12]; kinase RET (E762Q),96.6%
same,% Enzyme Activity (relative to DMSO controls),382 unique human kinases [13],88.98%
same,remaining activity at 10 µM,382 unique human kinases [13],89.6%
same,% Enzyme Activity (relative to DMSO controls),382 unique human kinases [14],93.37%
same,remaining activity at 10 µM,382 unique human kinases [14],98.6%
CC(C)c1cc(-c2n[nH]c(=O)n2-c2ccc3c(ccn3C)c2)c(O)cc1O [Ganetespib],remaining activity at 10 µM,382 unique human kinases [1],106%
same,remaining activity at 10 µM,382 unique human kinases [2],94.9%
same,remaining activity at 10 µM,382 unique human kinases [3],100%
